Test results reported in ChEMBL document CHEMBL2028040, “Malaria Box”.

How the values were obtained:
Plasmodium falciparum [1] = assay: MMV: Inhibition of Plasmodium falciparum 3D7 at 5uM compound concentration.; type: functional
Plasmodium falciparum [2] = assay: MMV: Inhibition of Plasmodium falciparum 3D7 (EC50).; type: functional, organism-based
Trypanosoma cruzi = assay: MMV: Inhibition of Trypanosoma cruzi (Tulahuen C4 LacZ) (Chagas in vitro).; type: functional, organism-based
[3] = test system: Trypanosoma brucei brucei; assay: MMV: Inhibition of Trypanosoma brucei brucei (Squib 427) (HAT in vitro).; type: functional, organism-based
[4] = test system: Trypanosoma brucei rhodesiense; assay: MMV: Inhibition of Trypanosoma brucei rhodesiense (STIB 900) (HAT in vitro).; type: functional, organism-based
Leishmania infantum = assay: MMV: Inhibition of Leishmania infantum (MHOM/MA/BE/67) in vitro.; type: functional, organism-based
[5] = MMV: Cytotoxicity against human fibroblasts (MRC-5) cells.; conditions: MRC-5 cells (human fibroblasts)
Plasmodium falciparum [6] = assay: MMV: Inhibition of Plasmodium falciparum K1 (EC50).; type: functional, organism-based

Compound	inhibition at 5 µM (Plasmodium falciparum [1]) [%]	EC50 (Plasmodium falciparum [2]) [µM]	IC50 (Trypanosoma cruzi) [µM]	IC50 [3] [µM]	IC50 [4] [µM]	IC50 (Leishmania infantum) [µM]	IC50 [5] [µM]	EC50 (Plasmodium falciparum [6]) [µM]
COc1ccc(Nc2nc(N/N=C/c3ccc(O)cc3)nc(Nc3ccc([N+](=O)[O-])cc3)n2)cc1	98	0.532	18.6	14.7	9.88	21.5	> 32	–
Cc1ccc(-c2cc(C(=O)Nc3ccc(S(=O)(=O)N4CCCCC4)cc3)[nH]n2)c(O)c1	94	0.535	> 32	> 32	> 32	> 32	> 32	–
COc1cc(C(=O)Nc2ccc(-c3nc4ccccc4[nH]3)cc2)cc(OC)c1OC	95	1.22	> 32	3.37	2.54	> 32	> 32	–
Cc1nc2ccccc2c(O)c1CC=C(Cl)Cl	89	0.836	1.88	> 32	> 32	> 32	> 32	–
c1ccc(-c2ccc(-c3nc4ccccc4[nH]3)cc2)cc1	52	1.07	> 32	> 32	> 32	> 32	> 32	–
O=C(NC1CCCCC1)C(c1cccs1)N(CCc1ccccc1)C(=O)c1ccco1 (centres undefined)	90	1.07	> 32	> 32	19.2	> 32	> 32	–
CC(Oc1ccc(NC(=O)c2cccs2)cc1)C(=O)c1ccc(Cl)cc1 (centres undefined)	87	1.03	15.4	15.5	10.3	> 32	> 32	–
O=[N+]([O-])c1ccc(C=NNc2nc3ccccc3[nH]2)cc1	99	0.142	> 32	> 32	> 32	16.2	> 32	–
COc1ccc(CCN2CCC(CN(C)Cc3cnn(-c4ccccc4)c3)CC2)cc1	96	1.43	6.43	0.86	0.254	12	18.6	–
COc1ccc(CNC(=O)c2cc3c(=O)n4ccccc4nc3n(CCc3ccccc3)c2=N)cc1	95	1.06	4.91	11.9	3.15	13.6	14.7	–
CC(C)=CCN1CCC(C(=O)Nc2ccc(-c3nc4ccccc4[nH]3)cc2)CC1	96	1.16	23	5.04	2.34	> 32	> 32	–
CCN(CC)CCn1c(=N)n(CC(O)c2ccc(Cl)c(Cl)c2)c2ccccc21 (centres undefined)	97	–	3.82	0.908	1.02	1	16.1	0.575
O=C(CCc1ccco1)NC1CCN(CC2(c3ccc(Cl)cc3)CCC2)CC1	96	1.14	16.6	2.89	1.01	19	> 32	–
COCCN(C(=O)Cc1cccs1)C(C(=O)NCc1ccc(OC)cc1)c1ccc(C(C)C)cc1 (centres undefined)	92	1.19	16.3	16.2	16.2	> 32	27	–
FC(F)(F)c1cccc(CNC2CCN(CCc3ccccc3)CC2)c1	96	0.685	15.7	2.73	1.31	16.6	> 32	–
C=CC12CCN(CC1)C(C(O)c1ccnc3ccc(OC)cc13)C2 (centres undefined)	–	–	> 32	> 32	16	> 32	> 32	0.0281
O=C(Nc1cccc(-c2nc3ccccc3[nH]2)c1)c1cccc(NC(=O)c2ccco2)c1	95	0.745	> 32	> 32	> 32	> 32	> 32	–
O=C(Nc1ccc(CN2CCOCC2)cc1)c1ccc(-c2ccc(Br)cc2)o1	96	1.36	11	3.61	3.86	18.4	4.81	–
Cc1ccc2cc3c(N)c4c(C)ccc(C)c4nc3nc2c1	98	1.31	4.56	4.09	1.19	4.32	11.4	–
CCn1c(SCC(=O)Nc2cc(C(F)(F)F)ccc2Cl)nc2ccccc2c1=O	91	1	> 32	> 32	> 32	> 32	> 32	–
CC(O)(c1ccc(Cl)cc1)C(CN1CCCCC1)c1ccccc1 (centres undefined)	94	–	> 32	16.1	14.8	> 32	> 32	0.576
O=C(Cc1ccccc1)NC(c1ccc(Cl)cc1)c1c(O)ccc2ccccc12 (centres undefined)	97	1.14	3.65	4.06	3.7	4.76	8.22	–
Cc1cc(=O)oc2c1ccc1oc(C(=O)c3ccccc3)c(C)c12	94	–	> 32	> 32	20.8	> 32	6.35	0.683
CCCc1c(C)nc2ccc(Br)cc2c1O	64	1.19	> 32	> 32	> 32	> 32	> 32	–
CC1=C(CC(=O)c2cccc([N+](=O)[O-])c2)C(=O)c2ccccc2C1=O	95	0.381	13.4	14.5	16	> 32	> 32	–
COc1ccc(C(=O)C2CC2c2ccc(Cl)cc2)cc1 (centres undefined)	94	1.06	> 32	> 32	> 32	> 32	> 32	–
CCCCCn1c(=N)n(CC(O)COc2cccc(C)c2)c2ccccc21 (centres undefined)	96	–	4.21	0.923	0.986	3.41	15.5	1.25
CN1c2ccccc2N(C)C1c1ccc2c(c1)OCO2	60	0.994	> 32	> 32	> 32	> 32	> 32	–
O=C(NCC1Cc2cccc(-c3ccncc3)c2O1)c1csc2c1CCCC2 (centres undefined)	87	1.72	5.16	16.5	13.9	> 32	28.5	–
C=C(C)CCC(C)N1CCC(N2CCC(C(=O)NCCc3ccccc3)CC2)CC1 (centres undefined)	96	1.75	18.2	17.7	7.79	> 32	19	–
